Entries after “also recorded” stand apart in the source; their conditions may differ.
How the values were obtained:
Format in all cases: cell-based
[1] = system: Escherichia coli beta lactamase producer (ESBL); settings: E. coli ESBL; 50 mg anhydrous topical cream with 28% by weight agent; gentamicin 10 μg disc
Experimental: This testing involved the use of 50 mg of an anhydrous topical cream containing the antibacterial agent of the invention in an amount of 28% by weight and 10 μg of gentamicin, impregnated into a standard commercially available disc (Remel, Lenoxa Kans.).

[2] = system: S. aureus; experiment: Disc diffusion assay, different carrier media (Example 2); settings: 28% by weight agent, approx. 50 μL
Experimental: For purposes of the experiments described below, test compositions were prepared by admixing antibacterially-activated creatinine (CRN) or a precursor of antibacterially-activated CRN, i.e., creatine ethyl ester (CEE), as required for the experiment at hand, with a weighed amount of a suitable carrier medium to give a final concentration of 28% by weight of the antibacterial agent, based on the total weight of the composition.
Antibacterial compositions were prepared following this procedure using a number of different aqueous and non-aqueous (anhydrous) carrier media, and evaluated for antibacterial activity in a standard disc diffusion assay. Thus, approximately 50 μL of each selected carrier containing 28% by weight of either a precursor of antibacterially-activated CRN, CEE, or antibacterially-activated CRN was added to a 6 mm disc and inverted onto a brain heart infusion agar plate that was previously spread with S. aureus at 10^5 organisms per mL. Plates were incubated at 37° C. overnight and the clear zones showing inhibition of bacterial growth were measured.

[3] = system: S. aureus; experiment: Growth in Lederberg's broth with CEE at different concentrations (Example 3, FIG. 2A); settings: inoculum 10^4/mL, 37° C., absorbance over time
Experimental: (§1) The CEE precursor of antibacterially-activated CRN was diluted at different concentrations into Lederberg's broth (LB), which was then inoculated to 10^4/mL with S. aureus. The cultures were incubated in capped plastic tubes at 37° C. and aerated by tumbling using a tube rotating device.

[4] = system: M. luteus; experiment: Growth in broth with CEE at different concentrations (Example 3, FIG. 2B); settings: broth culture, absorbance over time
Experimental: as §1
A similar experiment was conducted with the same precursor of antibacterially-activated CRN and tested on M. luteus.

[5] = system: S. aureus UAMS-1; experiment: Bactericidal test in overnight culture (Example 5, FIG. 4); settings: 200 mM
Experimental: S. aureus UAMS-1 was started from a static overnight, grown for 3 hours, then 0.2 mL was added to 3 different 50 mL cultures for control, CRN and CEE. These were shaken 30 min. at 37° C., an aliquot was removed prior to the addition of a precursor of antibacterially-activated CRN, CEE, or antibacterially-activated CRN, and the starting titer was determined. Powdered CEE or crystal CRN was added directly to the 50 mL cultures to a final concentration of 200 mM. The cultures were shaken overnight and the absorbance (A) and colony forming units (cfu) were determined.

[6] = system: S. aureus; experiment: Disc diffusion assay of creatine esters (Example 6); settings: approx. 50 μL anhydrous polyethylene glycol carrier with 28% by weight agent
Experimental: Four (4) different creatine esters were prepared according to the method of U.S. Pat. No. 6,897,334 to Vennerstrom. The esters thus prepared were activated in the manner described herein to impart antibacterial activity thereto. Four (4) test formulations were prepared, each including approximately 50 μL of an anhydrous polyethylene glycol carrier containing 28% by weight of a different creatine ester. Each formulation was added to a 6 mm disc and inverted onto a brain heart infusion agar plate that was previously spread with S. aureus at 10^5 organisms per mL. Plates were incubated at 37° C. overnight and the clear zones showing inhibition of bacterial growth were measured.

[7] = system: Bacillus subtilis; experiment: Disc diffusion assay, odor causing microorganisms (Example 11); settings: 25 mg anhydrous formulation (28% by weight) on filter disc
Experimental: (§2) Twenty-five milligrams of an anhydrous formulation of either antibacterially-activated CRN or a precursor of antibacterially-activated CRN, CEE, was prepared as described in Example 2, applied to a filter disc and tested for inhibition of bacterial growth of several odor causing microorganisms in a standard disc diffusion assay using Eridex™ (Cargill Inc. Cedar Rapids, Iowa) or creatine monohydrate containing no antibacterial agent as controls. […] The zones of inhibition for CRN or lack thereof for control test samples for B. linens and M. luteus are illustrated in FIGS. 10A and 10B respectively.

[8] = system: Brevibacterium linens; experiment: as above; settings: 25 mg anhydrous formulation (28% by weight) on filter disc
Experimental: as §2

[9] = system: Micrococcus luteus; experiment: as above; settings: 25 mg anhydrous formulation (28% by weight) on filter disc
Experimental: as §2

[10] = system: Staphylococcus epidermidis; experiment: as above; settings: 25 mg anhydrous formulation (28% by weight) on filter disc
Experimental: as §2

[11] = system: Rhodotorula sp.; experiment: Selective growth on LBD, mixture of S. aureus and Rhodotorula sp. (Example 12, FIG. 11B); settings: 200-400 mM CEE in LBD, 37° C., 36 hours
Experimental: (§3) Colonies of S. aureus and Rhodotorula sp. grown on LB agar supplemented with 1% dextrose (LBD) were suspended in PBS to 0.30 A580 nm. An equal volume of the two organisms was combined and the mixture streaked onto wells containing only LBD (None) or LBD supplemented with a precursor of antibacterially-activated CRN, CEE, and incubated at 37° C. for 36 hours.

[12] = system: S. aureus; experiment: as above; settings: 37° C., 36 hours
Experimental: as §3

[13] = system: Micrococcus sp.; experiment: Selective growth on BHI agar, mixture of three organisms (Example 12, FIG. 11C)
Experimental: (§4) Colonies of Micrococcus sp., Rhodotorula sp. and Saccharomyces sp. grown on brain heart infusion agar (BHI) were suspended in PBS to 0.30 OD, 580 nm. An equal volume of the three (3) organisms were combined and the mixture streaked onto plates containing BHI agar alone or BHI agar supplemented with a precursor of antibacterially-activated CRN, CEE, and incubated 48 hours at 37° C.

[14] = system: Rhodotorula sp.; experiment: as above
Experimental: as §4

[15] = system: Saccharomyces sp.; experiment: as above
Experimental: as §4

[16] = 300 and 400 mM CEE in BHI agar (data not shown)
[17] = 100 mM and 200 mM CEE in BHI agar, 48 hours, 37° C.

Structure (SMILES): CCOC(=O)CN(C)C(=N)N [CEE, creatine ethyl ester]
- Zone of Inhibition [1]: 19 mm
- Zone of Inhibition ([2]; carrier hydrogel): 20 mm
- Zone of Inhibition ([2]; carrier mineral oil): 21 mm
- Zone of Inhibition ([2]; carrier pharmaceutical grade Lipoil (lecithin and isopropyl palmitate)): 12 mm
- Zone of Inhibition ([2]; carrier pharmaceutical topical formulation (proprietary blend)): 26 mm
- Zone of Inhibition ([2]; carrier polyethylene glycol 200): 18 mm
- Zone of Inhibition ([2]; carrier polyethylene glycol 400): 14 mm
- Zone of Inhibition ([2]; carrier red palm oil): 15 mm
- Zone of Inhibition ([2]; carrier water/25% glycerol): 15 mm
- Zone of Inhibition ([2]; carrier water/50% glycerol): 15 mm
- Zone of Inhibition ([2]; carrier water): 9 mm
- Zone of Inhibition ([2]; carrier white palm oil/corn oil (50% ea)): 17 mm
- Zone of Inhibition ([2]; carrier white palm oil): 12 mm
- concentration that inhibited growth of S. aureus [3]: approximately 32 mM
- concentration that inhibited growth of M. luteus [4]: approximately 1 mM
- colonies from 1 mL of treated culture plated on solid media ([5]; overnight culture, 48 hours incubation of plates, control 3×10^9 per mL): no colonies
- bactericidal action for S. aureus ([5]; starting at about 1×10^3 organisms per mL): bacteriocidal; also recorded: bactericidal
- Zone of Inhibition [6]: 20 mm
- ZONE OF INHIBITION [7]: 20 mm
- ZONE OF INHIBITION [8]: 40 mm
- ZONE OF INHIBITION [9]: 22 mm
- ZONE OF INHIBITION [10]: 27 mm
- growth of Rhodotorula [11]: did not retard growth
- growth of Staphylococcus ([12]; 100 mM CEE in LBD): retarded
- growth of Staphylococcus ([12]; 200 mM CEE and greater in LBD): completely inhibited
- growth of Micrococcus ([13]; 100 mM CEE in BHI agar, 48 hours, 37° C.): greatly retarded
- growth of Micrococcus ([13]; 200 mM CEE in BHI agar, 48 hours, 37° C.): completely inhibited
- growth of Micrococcus [13, 16]: inhibited the growth of Micrococcus
- growth of Rhodotorula [14, 17]: enhanced
- growth of Rhodotorula [14, 16]: did not affect the growth
- growth of Saccharomyces [15, 17]: enhanced
- growth of Saccharomyces [15, 16]: did not affect the growth
